Reference: patent publication US11930822B2, “Methylobacterium compositions for fungal disease control” (priority 2017, dated 2024)

Tests used:
[1] = test system: P. torulosum, P. oopapillum, P. sylvaticum and P. lutarium; assay: Greenhouse Pythium assay in soybean, consortium of 4 Pythium species; type: in vivo, Pythium spp.
Procedure: (§1) A greenhouse experiment was conducted is to evaluate the ability of Methylobacterium strains to suppress Pythium disease in soybean. Methylobacterium treatments were compared to treatments with metalaxyl at various rates to determine if Methylobacterium strains can provide protection beyond and in addition to the level of protection provided by commonly used agronomic seed treatments. The experiment was designed to allow for growth of plants for in the presence of moderate levels of Pythium. spp. to determine impacts on emergence, % dead seed and root rot incidence and severity.
(§2) Pythium inoculants were prepared by mixing 453 g of parboiled rice and 323 mL of distilled water, placing the rice in a vented autoclavable plastic bag, and autoclaving 2×40 minutes with each cycle separated by 24 hours. Rice was inoculated with 3-4-day-old Pythium cultures and incubated for 7-10 days at 23 °C in the dark. The inoculum was then dried for 2 days.
(§3) A 20 ml layer of rice inoculum is placed on soil in cups and additional soil layered on top of the inoculum to position the inoculum approximately 2-3 cm below the seeds to be planted. Water is added to the soil and 10 seeds are planted in each cup. Domes are placed over the cups and the cups are placed in growth chambers with temperature set at 230C, and on a diurnal cycle of 16 h light and 8 h dark. The seeds are incubated for 14 days at 23 °C. For experiments to assess activity of Methylobacterium strains against a consortium of 4 Pythium species, the seeds are incubated for 14 days at 130C and for an additional 7 days at 23 °C.
(§4) Plants are rated when the first trifoliate is fully emerged and open to determine total plant weight, number of seedlings and number of dead seeds. Disease incidence is evaluated as percent plants with rotted roots and disease severity as percent rotted root tissue for each seedling.
Results from inoculation with a consortium of 4 Pythium species at alternating temperature of 130C and 230C are shown in Tables 35-36 below. The four species, which are all important pathogens of corn and soybean, are P. torulosum, P. oopapillum, P. sylvaticum and P. lutarium.

Pythium lutarium = assay: Greenhouse Pythium assay in soybean, Pythium lutarium; type: in vivo
Procedure: as §1, §2, §3, §4

Pythium sylvaticum = assay: Greenhouse Pythium assay in soybean, Pythium sylvaticum; type: in vivo
Procedure: as §1, §2, §3, §4

## COCC(=O)N(c1c(C)cccc1C)C(C)C(=O)OC (stereo not drawn) [metalaxyl]
[1]; Table 35, 0.35 Fl. oz/cwt
  Mean Dead Seed (%): 6%
  Mean Emergence (%): 94%
[1]; Table 35, 0.75 Fl. oz/cwt
  Mean Dead Seed (%): 2%
  Mean Emergence (%): 100%
[1]; Table 35, 1.25 Fl. oz/cwt
  Mean Dead Seed (%): 2%
  Mean Emergence (%): 94%
[1]; Table 36, 0.35 Fl. oz/cwt
  Root Rot INC (%): 94%
  Root Rot Severity (%): 13%
[1]; Table 36, 0.75 Fl. oz/cwt
  Root Rot INC (%): 100%
  Root Rot Severity (%): 12%
[1]; Table 36, 1.25 Fl. oz/cwt
  Root Rot INC (%): 94%
  Root Rot Severity (%): 9%
Pythium lutarium; Table 33, 0.75 Fl. oz/cwt
  % Dead Seed: 3%
  Mean Emergence (%): 97%
Pythium lutarium; Table 33, 1.25 Fl. oz/cwt
  % Dead Seed: 67%
  Mean Emergence (%): 93%
Pythium lutarium; Table 34, 0.35 Fl. oz/cwt
  Mean Root Rot Incidence (%): 95%
  Mean Root Rot Severity (%): 13%
Pythium lutarium; Table 34, 0.75 Fl. oz/cwt
  Mean Root Rot Incidence (%): 95%
  Mean Root Rot Severity (%): 10%
Pythium lutarium; Table 34, 1.25 Fl. oz/cwt
  Mean Root Rot Incidence (%): 93%
  Mean Root Rot Severity (%): 11%
Pythium sylvaticum; Table 31, 0.35 Fl. oz/cwt
  % Dead Seed: 18%
  Emergence: 82
Pythium sylvaticum; Table 32, 0.35 Fl. oz/cwt
  Mean Emergence (%): 78%
  Mean Root Rot Severity (%): 17%
Pythium sylvaticum; Table 32, 0.75 Fl. oz/cwt
  Mean Emergence (%): 92%
  Mean Root Rot Severity (%): 18%
Pythium sylvaticum; Table 32, 1.25 Fl. oz/cwt
  Mean Emergence (%): 78%
  Mean Root Rot Severity (%): 21%
